Read-outs that look alike come from different tables or passages of the source.
What was measured:
hNSC = assay: MMP assay in human neural stem cells (hNSC); format: cell-based; settings: Homo sapiens, Neural stem cell, 1 h, read-out: hNSC IC50 (MMP)
HepG2 cells [1] = assay: ROS-Glo hydrogen peroxide (ROS) assay; format: cell-based, human
HepG2 cells [2] = assay: Intracellular ATP content (cell viability) assay; format: cell-based, human; settings: for IC50: Homo sapiens, HepG2, 40 h
[3] = tested on: p53 (p53-bla HCT-116 cells); assay: p53 β-lactamase reporter gene assay; format: cell-based, human; settings: 16 h incubation, mean±SD of three experiments
[4] = tested on: Nrf2/ARE (ARE-bla HepG2 cells); assay: ARE β-lactamase reporter gene assay; format: cell-based, human; settings: 16 h incubation, mean±SD of three experiments
[5] = tested on: isolated rat liver mitochondria; assay: Oxygen consumption, Clark-type oxygen electrode; format: biochemical
[6] = tested on: HeLa cells expressing YFP-Parkin; assay: Parkin translocation assay; format: cell-based, human
rat primary hepatocytes [7] = tested on: rat primary hepatocytes
HepG2 cells [8] = settings: cited from earlier work
HepG2 cells [9] = assay: cells; settings: Homo sapiens
[10] = tested on: Caenorhabditis elegans strain PE255; assay: In vivo C. elegans ATP status assay; settings: for minimal effective concentration: Caenorhabditis elegans, read-out: LEC LUM: lowest effect concentration for luminescence, a measure of nematode ATP content
rat primary hepatocytes [11] = assay: MMP assay in rat primary hepatocytes; settings: Rattus norvegicus, Hepatocyte
[12] = tested on: Caenorhabditis elegans (Bristol N2); assay: C. elegans larval development and growth assay
[13] = HepG2, 1 h, read-out: HepG2 IC50 Galactose (MMP)
[14] = HepG2, 1 h, read-out: HepG2 IC50 Glucose (MMP)
[15] = 1 h, read-out: Rat hepatocytes IC50 (MMP)

O=C(Nc1ccccc1)Nc1ccccc1 [Diphenylurea]
IC50 (hNSC): 12.1 µM
ROS (HepG2) EC50 (HepG2 cells [1]): Inactive
ATP (HepG2, galactose) IC50 (HepG2 cells [2]): Inactive
ATP (HepG2, glucose) IC50 (HepG2 cells [2]): Inactive
p53 (HCT-116) EC50 [3]: Inactive
ARE (HepG2) EC50 [4]: Inactive
Potential Mechanism [5]: Uncoupler at low concentrations (20 µM), and Uncoupler + inhibitor at high concentrations (100 µM)
I-ADP, % of control (O2 consumption rate) ([5]; 0.8 µM): 97 (36.2) % of control
I-sub, % of control (O2 consumption rate) ([5]; 0.8 µM): 105 (11.3) % of control
II-ADP, % of control (O2 consumption rate) ([5]; 0.8 µM): 91 (57.2) % of control
II-sub, % of control (O2 consumption rate) ([5]; 0.8 µM): 106 (19.6) % of control
I-ADP, % of control (O2 consumption rate) ([5]; 4 µM): 93 (34.6) % of control
I-sub, % of control (O2 consumption rate) ([5]; 4 µM): 104 (11.2) % of control
II-ADP, % of control (O2 consumption rate) ([5]; 4 µM): 83 (52.5) % of control
II-sub, % of control (O2 consumption rate) ([5]; 4 µM): 97 (18.0) % of control
I-ADP, % of control (O2 consumption rate) ([5]; 20 µM): 96 (35.6) % of control
I-sub, % of control (O2 consumption rate) ([5]; 20 µM): 144 (15.5) % of control
II-ADP, % of control (O2 consumption rate) ([5]; 20 µM): 91 (57.6) % of control
II-sub, % of control (O2 consumption rate) ([5]; 20 µM): 129 (23.9) % of control
I-ADP, % of control (O2 consumption rate) ([5]; 100 µM): 38 (19.1) % of control
I-sub, % of control (O2 consumption rate) ([5]; 100 µM): 167 (35.8) % of control
II-ADP, % of control (O2 consumption rate) ([5]; 100 µM): 25 (15.1) % of control
II-sub, % of control (O2 consumption rate) ([5]; 100 µM): 55 (19.1) % of control
Parkin recruitment [6]: Inactive
MMP assays efficacy (%) Rat Hepatocytes (rat primary hepatocytes [7]): -72±30%
Rat hepatocytes (efficacy) (MMP) (rat primary hepatocytes [7]): 15.4±2.88 ( −117±8.21 ) %
MMP assays efficacy (%) qHTS-HepG2 (HepG2 cells [8]): -111±9%
IC50 (HepG2 cells [8]; read-out: MMP assays IC50 (µM) qHTS-HepG2): 1.6 ± 0.74 µM
IC50 (HepG2 cells [9]; [13]): 10.3 µM
IC50 (HepG2 cells [9]; [14]): 7.73 µM
IC50 (HepG2 cells [9]; HepG2, read-out: MMP assays IC50 (µM) HepG2): 2.51 µM
Emax (HepG2 cells [9]; HepG2, read-out: MMP assays efficacy (%) HepG2): 131%
LUM: mean difference in luminescence (ATP content) relative to plate controls ([10]; 0.5 µM): 0.08612
LUM: mean difference in luminescence (ATP content) relative to plate controls ([10]; 1 µM): 0.1632
LUM: mean difference in luminescence (ATP content) relative to plate controls ([10]; 5 µM): 0.3729
LUM: mean difference in luminescence (ATP content) relative to plate controls ([10]; 10 µM): 1.1516
LUM: mean difference in luminescence (ATP content) relative to plate controls ([10]; 25 µM): 1.501
LUM: mean difference in luminescence (ATP content) relative to plate controls ([10]; 50 µM): 1.222
LUM: mean difference in luminescence (ATP content) relative to plate controls ([10]; 75 µM): 0.9702
LUM: mean difference in luminescence (ATP content) relative to plate controls ([10]; 100 µM): 0.9744
effect on ATP content (in words) ([10]; 0.5–100μM): statistically significant decreases in ATP content
minimal effective concentration [10]: 10 µM
IC50 (rat primary hepatocytes [11]; [15]): 15.4 µM
IC50 (rat primary hepatocytes [11]; read-out: MMP assays IC50 (µM) Rat Hepatocytes): 8.46 ± 2.39 µM
EXT: mean difference in nematode size relative to plate controls ([12]; 0.5 µM): 0.0636
EXT: mean difference in nematode size relative to plate controls ([12]; 1 µM): 0.005834
EXT: mean difference in nematode size relative to plate controls ([12]; 5 µM): -0.06608
EXT: mean difference in nematode size relative to plate controls ([12]; 10 µM): 0.006337
EXT: mean difference in nematode size relative to plate controls ([12]; 25 µM): 0.05471
EXT: mean difference in nematode size relative to plate controls ([12]; 50 µM): 0.1792
EXT: mean difference in nematode size relative to plate controls ([12]; 75 µM): 0.1069
EXT: mean difference in nematode size relative to plate controls ([12]; 100 µM): 0.0228
effect on larval growth (in words) ([12]; 0.5–100μM): did not affect growth

CCC(C)c1cc([N+](=O)[O-])cc([N+](=O)[O-])c1O (stereo not drawn) [Dinoseb]
IC50 (hNSC): 22.3 µM
EC50 (HepG2 cells [1]; Homo sapiens, HepG2, 2 h, read-out: ROS (HepG2) EC50): 27.6 µM
IC50 (HepG2 cells [2]; read-out: ATP (HepG2, galactose) IC50): 32.6 µM
IC50 (HepG2 cells [2]; read-out: ATP (HepG2, glucose) IC50): 36.8 µM
EC50 ([3]; Homo sapiens): 2.63 ± 1.78 µM
EC50 ([4]; Homo sapiens, HepG2, read-out: ARE (HepG2) EC50): 0.76 ± 0.13 µM
Potential Mechanism [5]: Uncoupler at low concentrations (0.032-0.16 µM), and Uncoupler + inhibitor at high concentrations (0.8-100 µM)
I-ADP, % of control (O2 consumption rate) ([5]; 0.0064 µM): 89 (38.7) % of control
I-sub, % of control (O2 consumption rate) ([5]; 0.0064 µM): 118 (15.5) % of control
II-ADP, % of control (O2 consumption rate) ([5]; 0.0064 µM): 98 (66.3) % of control
II-sub, % of control (O2 consumption rate) ([5]; 0.0064 µM): 122 (25.5) % of control
I-ADP, % of control (O2 consumption rate) ([5]; 0.032 µM): 97 (42.2) % of control
I-sub, % of control (O2 consumption rate) ([5]; 0.032 µM): 131 (17.2) % of control
II-ADP, % of control (O2 consumption rate) ([5]; 0.032 µM): 92 (62.6) % of control
II-sub, % of control (O2 consumption rate) ([5]; 0.032 µM): 137 (28.6) % of control
I-ADP, % of control (O2 consumption rate) ([5]; 0.16 µM): 106 (46.2) % of control
I-sub, % of control (O2 consumption rate) ([5]; 0.16 µM): 181 (23.7) % of control
II-ADP, % of control (O2 consumption rate) ([5]; 0.16 µM): 98 (66.1) % of control
II-sub, % of control (O2 consumption rate) ([5]; 0.16 µM): 199 (41.5) % of control
I-ADP, % of control (O2 consumption rate) ([5]; 0.8 µM): 138 (59.9) % of control
I-sub, % of control (O2 consumption rate) ([5]; 0.8 µM): 423 (55.4) % of control
II-ADP, % of control (O2 consumption rate) ([5]; 0.8 µM): 59 (40.0) % of control
II-sub, % of control (O2 consumption rate) ([5]; 0.8 µM): 193 (40.3) % of control
I-ADP, % of control (O2 consumption rate) ([5]; 4 µM): 111 (48.1) % of control
I-sub, % of control (O2 consumption rate) ([5]; 4 µM): 347 (45.5) % of control
II-ADP, % of control (O2 consumption rate) ([5]; 4 µM): 28 (19.1) % of control
II-sub, % of control (O2 consumption rate) ([5]; 4 µM): 96 (20.0) % of control
I-ADP, % of control (O2 consumption rate) ([5]; 20 µM): 70 (30.6) % of control
I-sub, % of control (O2 consumption rate) ([5]; 20 µM): 242 (31.7) % of control
II-ADP, % of control (O2 consumption rate) ([5]; 20 µM): 18 (12.1) % of control
II-sub, % of control (O2 consumption rate) ([5]; 20 µM): 64 (13.3) % of control
I-ADP, % of control (O2 consumption rate) ([5]; 100 µM): 13 (6.5) % of control
I-sub, % of control (O2 consumption rate) ([5]; 100 µM): 33 (7.1) % of control
II-ADP, % of control (O2 consumption rate) ([5]; 100 µM): 12 (6.9) % of control
II-sub, % of control (O2 consumption rate) ([5]; 100 µM): 22 (7.8) % of control
Parkin recruitment [6]: Active
Rat hepatocytes (efficacy) (MMP) (rat primary hepatocytes [7]): 4.50±0.81 ( −130±39.0 ) %
IC50 (HepG2 cells [9]; [13]): 16.5 µM
IC50 (HepG2 cells [9]; [14]): 12.4 µM
LUM: mean difference in luminescence (ATP content) relative to plate controls ([10]; 0.5 µM): 0.1603
LUM: mean difference in luminescence (ATP content) relative to plate controls ([10]; 1 µM): 0.2694
LUM: mean difference in luminescence (ATP content) relative to plate controls ([10]; 5 µM): 0.2298
LUM: mean difference in luminescence (ATP content) relative to plate controls ([10]; 10 µM): 0.4579
LUM: mean difference in luminescence (ATP content) relative to plate controls ([10]; 25 µM): 0.5745
LUM: mean difference in luminescence (ATP content) relative to plate controls ([10]; 50 µM): 0.9424
LUM: mean difference in luminescence (ATP content) relative to plate controls ([10]; 75 µM): 1.122
LUM: mean difference in luminescence (ATP content) relative to plate controls ([10]; 100 µM): 1.3353
minimal effective concentration [10]: 50 µM
IC50 (rat primary hepatocytes [11]; [15]): 4.5 µM
EXT: mean difference in nematode size relative to plate controls ([12]; 0.5 µM): -0.01247
EXT: mean difference in nematode size relative to plate controls ([12]; 1 µM): -0.02122
EXT: mean difference in nematode size relative to plate controls ([12]; 5 µM): -0.00308
EXT: mean difference in nematode size relative to plate controls ([12]; 10 µM): 0.1196
EXT: mean difference in nematode size relative to plate controls ([12]; 25 µM): 0.1256
EXT: mean difference in nematode size relative to plate controls ([12]; 50 µM): 0.4169
EXT: mean difference in nematode size relative to plate controls ([12]; 75 µM): 0.7162
EXT: mean difference in nematode size relative to plate controls ([12]; 100 µM): 0.9301
minimal effective concentration ([12]; Caenorhabditis elegans, read-out: LEC EXT: lowest effect concentration for extinction, a measure of nematode size): 50 µM

Source: PMC6112376, “Comprehensive Analyses and Prioritization of Tox21 10K Chemicals Affecting Mitochondrial Function by in-Depth Mechanistic Studies” (Environmental Health Perspectives, 2018)
